Tested on: H23 cells
Assay: CRISPR/Cas9 synthetic lethal screen with TNO155 alone
Type: cell-based, human

Question: C[C@@H]1OCC2(CCN(c3cnc(Sc4ccnc(N)c4Cl)c(N)n3)CC2)[C@@H]1N [TNO155] was tested. Which “neg|lfc” value (knockout gene AP2M1) did it give?
Answer: −1.5896

Question: What about the “neg|lfc” value (knockout gene ATP6V0C) of the same compound?
Answer: −2.4937

Question: What about the “neg|lfc” value (knockout gene ATP6V1F) of the same compound?
Answer: −1.3822

Question: And the “neg|lfc” value (knockout gene ATP6V1H)?
Answer: −1.2922

Question: And the “neg|lfc” value (knockout gene BUB1)?
Answer: −1.3761

Question: And the “neg|lfc” value (knockout gene C7orf26)?
Answer: −1.2403

Question: And the “neg|lfc” value (knockout gene C12orf45)?
Answer: −0.8919

Question: And the “neg|lfc” value (knockout gene C18orf21)?
Answer: −1.7774

Question: And the “neg|lfc” value (knockout gene CAPZA1)?
Answer: −0.8323

Question: And the “neg|lfc” value (knockout gene CARD10)?
Answer: −0.8745

Question: What about the “neg|lfc” value (knockout gene CD3EAP) of the same compound?
Answer: −0.9138

Question: And the “neg|lfc” value (knockout gene CENPM)?
Answer: −2.7542

Question: And the “neg|lfc” value (knockout gene CFDP1)?
Answer: −1.4115

Question: What about the “neg|lfc” value (knockout gene COQ6) of the same compound?
Answer: −0.9015

Question: And the “neg|lfc” value (knockout gene COX6B1)?
Answer: −1.1999

Question: What about the “neg|lfc” value (knockout gene CS) of the same compound?
Answer: −0.9482

Question: What about the “neg|lfc” value (knockout gene DCST2) of the same compound?
Answer: −1.3843

Question: What about the “neg|lfc” value (knockout gene DDX52) of the same compound?
Answer: −1.2486

Question: And the “neg|lfc” value (knockout gene DENR)?
Answer: −1.046

Question: And the “neg|lfc” value (knockout gene DHPS)?
Answer: −1.8131

Question: What about the “neg|lfc” value (knockout gene DPM3) of the same compound?
Answer: −0.9381

Question: And the “neg|lfc” value (knockout gene EGLN1)?
Answer: −1.2972

Question: What about the “neg|lfc” value (knockout gene ELP2) of the same compound?
Answer: −0.9643

Question: And the “neg|lfc” value (knockout gene EXOSC2)?
Answer: −2.2014

Question: What about the “neg|lfc” value (knockout gene FASTKD5) of the same compound?
Answer: −1.4304

Question: What about the “neg|lfc” value (knockout gene FBL) of the same compound?
Answer: −2.1994

Question: What about the “neg|lfc” value (knockout gene FXN) of the same compound?
Answer: −2.3715

Question: What about the “neg|lfc” value (knockout gene G6PD) of the same compound?
Answer: −2.0605

Question: What about the “neg|lfc” value (knockout gene GATA5) of the same compound?
Answer: −0.7392

Question: And the “neg|lfc” value (knockout gene GMPS)?
Answer: −1.5348

Question: What about the “neg|lfc” value (knockout gene GNB2L1) of the same compound?
Answer: −1.4387

Question: And the “neg|lfc” value (knockout gene GTF2H3)?
Answer: −0.8448

Question: What about the “neg|lfc” value (knockout gene GTF3C1) of the same compound?
Answer: −1.8687

Question: What about the “neg|lfc” value (knockout gene HARS2) of the same compound?
Answer: −1.9989

Question: And the “neg|lfc” value (knockout gene HIRA)?
Answer: −1.0969

Question: And the “neg|lfc” value (knockout gene HSPA13)?
Answer: −1.2857

Question: And the “neg|lfc” value (knockout gene IPO9)?
Answer: −1.5514

Question: What about the “neg|lfc” value (knockout gene KIAA1324) of the same compound?
Answer: −0.9092

Question: And the “neg|lfc” value (knockout gene KREMEN2)?
Answer: −1.0026

Question: And the “neg|lfc” value (knockout gene LARS)?
Answer: −2.0903

Question: And the “neg|lfc” value (knockout gene LEMD2)?
Answer: −1.7855

Question: What about the “neg|lfc” value (knockout gene LIAS) of the same compound?
Answer: −1.7787

Question: What about the “neg|lfc” value (knockout gene LRPPRC) of the same compound?
Answer: −1.3022

Question: What about the “neg|lfc” value (knockout gene MCAT) of the same compound?
Answer: −1.6999

Question: And the “neg|lfc” value (knockout gene MMGT1)?
Answer: −1.1768

Question: And the “neg|lfc” value (knockout gene MPHOSPH10)?
Answer: −1.2081

Question: What about the “neg|lfc” value (knockout gene MRPL2) of the same compound?
Answer: −1.5188

Question: And the “neg|lfc” value (knockout gene MRPS11)?
Answer: −2.1012

Question: What about the “neg|lfc” value (knockout gene MRPS14) of the same compound?
Answer: −2.7074

Question: And the “neg|lfc” value (knockout gene MTERFD1)?
Answer: −0.8478

Question: And the “neg|lfc” value (knockout gene MTFMT)?
Answer: −1.4999

Question: And the “neg|lfc” value (knockout gene MVD)?
Answer: −2.2878

Question: And the “neg|lfc” value (knockout gene NDUFAF4)?
Answer: −2.8677

Question: And the “neg|lfc” value (knockout gene NDUFS2)?
Answer: −1.6602

Question: And the “neg|lfc” value (knockout gene NGDN)?
Answer: −1.6157

Question: And the “neg|lfc” value (knockout gene NHP2)?
Answer: −2.4304

Question: And the “neg|lfc” value (knockout gene NUP50)?
Answer: −1.7194

Question: And the “neg|lfc” value (knockout gene OXA1L)?
Answer: −1.0359

Question: What about the “neg|lfc” value (knockout gene PAXIP1) of the same compound?
Answer: −1.2046

Question: What about the “neg|lfc” value (knockout gene PELO) of the same compound?
Answer: −1.8232

Question: What about the “neg|lfc” value (knockout gene PFDN2) of the same compound?
Answer: −1.6271

Question: What about the “neg|lfc” value (knockout gene PHB) of the same compound?
Answer: −0.6638

Question: And the “neg|lfc” value (knockout gene PHF6)?
Answer: −0.9513

Question: What about the “neg|lfc” value (knockout gene PIGM) of the same compound?
Answer: −0.9761

Question: And the “neg|lfc” value (knockout gene PIK3C3)?
Answer: −1.3101

Question: What about the “neg|lfc” value (knockout gene PKN2) of the same compound?
Answer: −1.323

Question: What about the “neg|lfc” value (knockout gene PLEC) of the same compound?
Answer: −0.9261

Question: And the “neg|lfc” value (knockout gene POLR3C)?
Answer: −2.1096

Question: What about the “neg|lfc” value (knockout gene PRMT1) of the same compound?
Answer: −2.4486

Question: What about the “neg|lfc” value (knockout gene PTCD3) of the same compound?
Answer: −1.5106

Question: What about the “neg|lfc” value (knockout gene RABGGTA) of the same compound?
Answer: −1.5175

Question: What about the “neg|lfc” value (knockout gene RBFA) of the same compound?
Answer: −1.2488

Question: What about the “neg|lfc” value (knockout gene RBM15) of the same compound?
Answer: −0.9128

Question: What about the “neg|lfc” value (knockout gene RMND1) of the same compound?
Answer: −2.1857

Question: What about the “neg|lfc” value (knockout gene RNGTT) of the same compound?
Answer: −1.4545

Question: What about the “neg|lfc” value (knockout gene RNMTL1) of the same compound?
Answer: −1.8816

Question: What about the “neg|lfc” value (knockout gene RPF2) of the same compound?
Answer: −1.6299

Question: What about the “neg|lfc” value (knockout gene RPS2) of the same compound?
Answer: −1.4859

Question: What about the “neg|lfc” value (knockout gene RRP36) of the same compound?
Answer: −1.7306

Question: And the “neg|lfc” value (knockout gene RSBN1)?
Answer: −1.1801

Question: What about the “neg|lfc” value (knockout gene SDHB) of the same compound?
Answer: −1.352

Question: What about the “neg|lfc” value (knockout gene SDHC) of the same compound?
Answer: −1.0873

Question: What about the “neg|lfc” value (knockout gene SLC30A9) of the same compound?
Answer: −0.8169

Question: And the “neg|lfc” value (knockout gene SMNDC1)?
Answer: −1.605

Question: And the “neg|lfc” value (knockout gene SNRPA)?
Answer: −0.853

Question: What about the “neg|lfc” value (knockout gene SORT1) of the same compound?
Answer: −0.7919

Question: What about the “neg|lfc” value (knockout gene SS18L2) of the same compound?
Answer: −1.8054

Question: What about the “neg|lfc” value (knockout gene SYS1) of the same compound?
Answer: −1.4135

Question: And the “neg|lfc” value (knockout gene TAF2)?
Answer: −1.6548

Question: What about the “neg|lfc” value (knockout gene TAMM41) of the same compound?
Answer: −1.389

Question: And the “neg|lfc” value (knockout gene TEX10)?
Answer: −1.2531

Question: And the “neg|lfc” value (knockout gene TFRC)?
Answer: −0.7641

Question: And the “neg|lfc” value (knockout gene TRAPPC3)?
Answer: −1.2908

Question: What about the “neg|lfc” value (knockout gene TRAPPC11) of the same compound?
Answer: −1.3146

Question: And the “neg|lfc” value (knockout gene TRMT6)?
Answer: −1.3112

Question: What about the “neg|lfc” value (knockout gene TSC2) of the same compound?
Answer: −1.2936

Question: What about the “neg|lfc” value (knockout gene VMP1) of the same compound?
Answer: −2.2825

Question: And the “neg|lfc” value (knockout gene XRCC3)?
Answer: −1.7596

Question: And the “neg|lfc” value (knockout gene YARS)?
Answer: −2.5691

Question: What about the “neg|lfc” value (knockout gene YKT6) of the same compound?
Answer: −1.2993

Reference: US20250082648A1, “COMPOSITIONS AND METHODS FOR ENHANCING KRAS INHIBITOR OR SHP2 INHIBITOR EFFICACY” (New York University, priority 2023, published 2025)
